According to patent US9475789B2, “Use of polyenylpyrrole derivatives for treating inflammation” (WELLHEAD BIOLOGICAL TECHNOLOGY CORP., priority 2014, dated 2016):
“Also recorded” adds a separate entry of the source.

Columns and labels:
Format in all cases: cell-based, murine
TNF-α = TNF-α ELISA, LPS-activated JAWSII dendritic cells; settings: LPS 1 μg/ml 24 h
Description: (§1) (A) J774A.1 macrophages (4×10^5/ml), (B) peritoneal macrophages (4×10^5/ml), and (C) JAWSII dendritic cells (4×10^5/ml) were incubated with compound 1h or DMSO for 30 min followed by stimulating with LPS (1 μg/ml) for 24 h, then IL-6 and TNF-α concentration in culture medium were assayed by ELISA. The data are expressed as the mean±SD for three separate experiments. *, **, and *** indicate a significant difference at the level of p<0.05, p<0.01, p<0.001 respectively compared to LPS group.
(§2) The effects of tested samples on IL-1β, TNF-α and IL-6 production were measured by ELISA according to the manufacturer's instruction. In brief, 50 μl of biotinylated antibody reagent and 50 μl of supernatant were added to an anti-mouse IL-1β, TNF-α and IL-6 precoated stripwell plate, and incubated at room temperature for 2 h. After washing the plate three times with washing buffer, 100 μl of diluted streptavidin-HRP concentrate was added to each well and incubated at room temperature for 30 min. The washing process was repeated; then 100 μl of a premixed tetramethylbenzidine substrate solution was added to each well and developed at room temperature in the dark for 30 min. Following the addition of 100 μl of stop solution to each well to stop the reaction, the absorbance of the plate was measured by a microplate reader at 450 nm wavelength.

RAW 264.7 cells = assay: AlamarBlue assay for cell viability; settings: Mus musculus, RAW264.7, cytotoxicity against RAW 264.7 cells, 24 h treatment
Description: RAW 264.7 cells were seeded at a density of 5000 cells in 100 μl RPMI 1640 medium with 10% heat-inactivated FBS per well in 96-well flat-bottom plates and incubated for 24 h at 37° C. in a 5% CO2 incubator. Cells were incubated with tested samples for 24 h and the AlamarBlue® assay was used to determine the cytotoxicity of the test samples. The procedure was conducted following the protocol described in the manufacture's instruction (AbD Serotec Ltd).
The aim of this study is to identify non-toxic polyenylpyrrole derivatives which can be used as anti-inflammatory agents. Compounds 1a-n were evaluated for their cytotoxicities against the murine macrophages cell line RAW 264.7 after 24 h treatment.

IL-6 = IL-6 ELISA, LPS-activated J774A.1 macrophages; settings: J774A.1 cells, LPS 1 μg/ml 24 h
Description: as §1, §2

IKK-α and IκB-α = assay: Western blot of IKK-α and IκB-α, LPS-activated RAW 264.7 macrophages; settings: LPS-activated RAW 264.7, LPS 20 min
Description: (A) RAW 264.7 macrophages (5×10^5/ml) or (B) J774A.1 macrophages (5×10^5/ml) were incubated with compound 1h or DMSO for 30 min followed by LPS (1 μg/ml) stimulating for 20 min, then the phosphorylation levels of IKK-α and IκB-α and total IκB-α protein level were analyzed by Western blot. (C) RAW 264.7 macrophages (5×10^5/ml) or (D) J774A.1 macrophages (5×10^5/ml) were incubated with compound 1h (10-40 μM) or DMSO for 30 min followed by LPS (1 μg/ml) stimulating for 20 min, then the nuclear translocation of NF-κB were analyzed by ELISA. (E) RAW-Blue™ cells (5×10^5/ml) were incubated with compound 1h (2.5-40 μM) or DMSO for 30 min followed by LPS (1 μg/ml) stimulating for 24 h, then the SEAP activity was measured by QUANTI-Blue™. […] In (C), (D), and (E), the data are expressed as the mean±SD for three separate experiments. *, **, and *** indicate a significant difference at the level of p<0.05, p<0.01, and p<0.001 respectively compared to LPS group.
(§3) Whole cell lysates were separated by SDS-PAGE and electrotransferred to a PVDF membrane. The membranes were incubated in blocking solution—5% nonfat milk in phosphate buffered saline with 0.1% Tween 20—at room temperature for 1 h. Each membrane was incubated with a specific primary antibody at room temperature for 2 h. After washing three times in PBS with 0.1% Tween 20, the membrane was incubated with an HRP-conjugated secondary antibody directed against the primary antibody. The membrane was developed by an enhanced chemiluminescence Western blot detection system.

ERK1/2, JNK1/2, p38 = assay: Western blot of MAPK phosphorylation, LPS-activated RAW 264.7 macrophages; settings: compound 1h 20 μM
Description: In (A), RAW 264.7 macrophages (5×10^5/ml) were incubated with compound 1h (20 μM), N-acetyl cysteine (NAC; 10 mM) or DMSO (vehicle) for 30 min followed by LPS (1 μg/ml) stimulating for the indicated time, then ROS levels were measured by detection of the fluorescence intensity of the fluorophore carboxyl-DCF and expressed relative to those at time zero. In (B), RAW 264.7 macrophages (5×10^5/ml) were incubated with compound 1h (20 μM) or DMSO for 30 min followed by LPS (1 μg/ml) stimulating for 0-60 min, then the phosphorylation levels of ERK1/2, JNK1/2, p38 were analyzed by Western blot. In (C), J774A.1 macrophages (5×10^5/ml) were incubated with compound 1h or DMSO for 30 min followed by LPS (1 μg/ml) stimulating for 20 min, then the phosphorylation levels of ERK1/2, JNK1/2, p38 were analyzed by Western blot.
as §3

iNOS = assay: Western blot of iNOS protein in LPS-activated RAW 264.7 macrophages; settings: LPS-activated RAW 264.7, compared with vehicle
Description: In (A) and (C), cells (5×10^5/ml) were incubated with polyenylpyrrole derivatives or DMSO (vehicle) for 30 min followed by stimulating with LPS (1 μg/ml) for 24 h, then NO (A), IL-6 and TNF-α (C) concentration in culture medium were assayed by Griess reaction and ELISA, respectively. In (B), cells (5×10^5/ml) were pretreated with polyenylpyrrole derivatives or DMSO for 30 min followed by stimulating with LPS (1 μg/ml) for 24 h, then the protein expression of iNOS and COX-2 were assayed by Western blot.
as §3

SMILES: O=c1cc(O)cc(/C=C/C=C/C=C/C=C/c2[nH]ccc2Cl)o1 [Compound 1h]
- secretion of TNF-α (TNF-α): also reduced
- IC50 (RAW 264.7 cells): > 100 µM
- secretion of IL-6 (IL-6): reduced
- IκB-α degradation (IKK-α and IκB-α): partially rescued
- phosphorylation level of IKK-α (IKK-α and IκB-α): inhibited
- phosphorylation level of IκB-α (IKK-α and IκB-α): inhibited
- phosphorylation level of ERK1/2 (ERK1/2, JNK1/2, p38): inhibited
- phosphorylation level of JNK1/2 (ERK1/2, JNK1/2, p38): inhibited
- phosphorylation level of p38 (ERK1/2, JNK1/2, p38): inhibited
- expression of iNOS protein (iNOS): decreased production; also recorded: reduced the expression of iNOS protein
